For assay [1], the system named is somatostatin receptor proteins (58-kDa, 42-kDa, 27-kDa). As to conditions: background; AtT-20 and GH3 cells; cited from earlier work.
The target in assay [2] is T1, hGPR81 (SSTR1) (Homo sapiens, UniProt P30872).
T1 construct: in vitro transcribed RNA injected into Xenopus laevis oocytes
Description: Ca^2+ efflux in oocytes injected with hGPR81 RNA. In kind it is cell-based. As to conditions: laevis oocytes injected with in vitro transcribed RNA. As to the method: (§1) Since the presence of a short cytoplasmic loop connecting transmembrane segments M5-M6 is a feature of G protein-coupled receptors that bind peptide hormones and neuropeptides (E. M. Ross, 1990), peptides known to regulate hormone secretion from pancreatic islets were tested as ligands for hGPR81. Initial attempts to identify the ligand for hGPR81 by injecting RNA transcribed in vitro into fenopus laevis oocytes (Kayano et al., 1990) and assessing changes in basal or stimulated cAMP levels in response to […] [calcitonin-gene-related peptide, gastric inhibitory polypeptide, glucagon, glucagon-like peptide 1-(7-36 amide), and vasoactive intestinal peptide], or Ca^2+ efflux (Williams et al., 1988) (angiotensin II, bombesin, cholecystokinin, and vasopressin) were unsuccessful. The binding of radiolabeled peptides (galanin, glucagon and somatostatin) to COS-7 cells transiently expressing hGPR81 was attempted, as well.

The target in assay [3] is T1, hGPR81 (SSTR1). Put plainly: Changes in basal or stimulated cAMP levels in oocytes injected with hGPR81 RNA. The format is cell-based. Conditions: laevis oocytes injected with in vitro transcribed RNA. As to the method:
as §1
(In general: Cyclic AMP is a second messenger, typically raised through Gs and lowered through Gi signalling.)

The subject of assay [4] is growth hormone, insulin, glucagon, gastric acid and pancreatic exocrine secretion. Conditions: background, Brazeau et al., 1973, Wass, 1989, cited from earlier work.
Assay [5] deals with 58 to 60-kDa somatostatin receptor protein. As to conditions: background; rat brain and AtT-20 cells; cited from earlier work.

Where two headings read alike, the source gives them in different places.

T1 sequence (P30872 whole entry): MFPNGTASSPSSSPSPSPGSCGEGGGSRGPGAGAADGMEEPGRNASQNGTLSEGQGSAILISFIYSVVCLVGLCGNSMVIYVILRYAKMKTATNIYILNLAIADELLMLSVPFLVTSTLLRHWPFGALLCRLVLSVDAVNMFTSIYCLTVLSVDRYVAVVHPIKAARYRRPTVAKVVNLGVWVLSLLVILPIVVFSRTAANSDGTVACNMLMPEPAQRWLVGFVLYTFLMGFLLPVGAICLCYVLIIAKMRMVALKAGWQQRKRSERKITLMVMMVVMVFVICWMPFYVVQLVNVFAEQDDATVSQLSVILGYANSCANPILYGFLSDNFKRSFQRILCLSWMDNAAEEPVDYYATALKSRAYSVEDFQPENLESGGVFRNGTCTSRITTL

For the molecule `Nc1nc2c(ncn2[C@@H]2O[C@H](COP(=O)(O)OP(=O)(O)OP(=O)(O)O)[C@@H](O)[C@H]2O)c(=O)[nH]1` [GTP], in assay [1], the “inhibition of labeling of somatostatin receptor proteins” value was “sensitive to inhibition”.

On to `NC(=O)CC[C@@H]1NC(=O)[C@H](Cc2ccccc2)NC(=O)[C@H](Cc2ccc(O)cc2)NC(=O)[C@@H](N)CSSC[C@@H](C(=O)N2CCC[C@H]2C(=O)N[C@@H](CCCN=C(N)N)C(=O)NCC(N)=O)NC(=O)[C@H](CC(N)=O)NC1=O` [vasopressin], for which the “identification as ligand for hGPR81 by Ca^2+ efflux” value (shortened to “identification … by Ca^2+ efflux”) on hGPR81 (SSTR1) [2] is reported as “unsuccessful”.

As for “angiotensin II: peptide known to regulate hormone secretion from pancreatic islets (DRVYIHPF)”, the “identification … by Ca^2+ efflux” value with hGPR81 (SSTR1) [2] is given as “unsuccessful”.

For the molecule bombesin, the “identification … by Ca^2+ efflux” value on hGPR81 (SSTR1) [2] is given as “unsuccessful”.

calcitonin-gene-related peptide: the “identification as ligand for hGPR81 by changes in basal or stimulated cAMP levels” value on hGPR81 (SSTR1) [3] was “unsuccessful”.

Consider “gastric inhibitory polypeptide: peptide known to regulate hormone secretion from pancreatic islets”, for which the “identification as ligand for hGPR81 by changes in basal or stimulated cAMP levels” value in the assay with hGPR81 (SSTR1) [3] was “unsuccessful”.

glucagon-like peptide 1-(7-36 amide): the “identification as ligand for hGPR81 by changes in basal or stimulated cAMP levels” value at hGPR81 (SSTR1) [3] was “unsuccessful”.

As to “glucagon: peptide known to regulate hormone secretion from pancreatic islets”, the “identification as ligand for hGPR81 by changes in basal or stimulated cAMP levels” value in the assay with hGPR81 (SSTR1) [3] was “unsuccessful”.

Regarding somatostatin-14, the inhibition of secretion result in assay [4] was “relatively more selective for inhibition of glucagon and gastric acid secretion”; in assay [4] (listed as Somatostatin), “potent inhibitor of growth hormone secretion”. Besides, the “inhibition of labeling of somatostatin receptor proteins” value in assay [1] was “sensitive to inhibition”. The “binding to 58 to 60-kDa receptor protein” value in assay [5] is “high affinity and specificity”.

As to “somatostatin-28: bioactive form of somatostatin derived via tissue-specific proteolytic processing of prosomatostatin (Bachem)”, the inhibition of secretion entry in assay [4] was “more specific inhibitor of growth hormone, insulin and pancreatic exocrine secretion”. Also, the “binding to 58 to 60-kDa receptor protein” value in assay [5] is “high affinity and specificity”.

In the case of “vasoactive intestinal peptide: peptide known to regulate hormone secretion from pancreatic islets”, in the assay with hGPR81 (SSTR1) [3], the “identification as ligand for hGPR81 by changes in basal or stimulated cAMP levels” value is “unsuccessful”.
